# Measured values from article PMC11899342, “Novel Triazeneindole Antibiotics: Synthesis and Hit-to-Lead Optimization” (International Journal of Molecular Sciences, 2025).
# Test system: Wistar outbred rats
# Experiment: Single-dose acute toxicity, intragastric administration
# Type: in vivo, rat
# Details: for Changes Appearance / Changes Behavior / Changes Body Weight / Changes Feed Intake / Changes Organ Histology / Changes Organ Weight / Changes Water Intake: 14-day follow-up; for Relative organ weight, Adrenal glands / Relative organ weight, Brain / Relative organ weight, Heart / Relative organ weight, Kidneys / Relative organ weight, Liver / Relative organ weight, Lungs with trachea / Relative organ weight, Ovaries / Relative organ weight, Spleen / Relative organ weight, Thymus / Relative organ weight, Testes: after 15 days, M±SEM; for number of animals that died: all dose groups; for Deaths (Dead/ Total): Wistar, rat, in vivo
# Experimental: Before administration, the BX-SI043 substance was resuspended in a 1% starch solution. The animals in the treatment groups received suspensions intragastrically in doses of 2000 mg/kg (administered in two equal doses, with a 30–40 min interval), 1000 mg/kg, 600 mg/kg, and 300 mg/kg (administered in single doses).
# The animals were monitored daily for any abnormalities. On the 2nd, 7th, and 13th days after administration, the animals were clinically evaluated and weighed, and the consumption of feed and water were measured. On the 14th day, the behavior of the animals was evaluated. On the 15th day, the animals were euthanized, and the lungs (with trachea), heart, thymus, liver, kidneys, spleen, stomach, small intestine, colon, brain, adrenal glands, and testes/ovaries were fixed in 10% neutral formalin for histological evaluation.
# [1] = female rats, 300 mg/kg intragastric
# [2] = female rats, 600 mg/kg intragastric
# [3] = female rats, 1000 mg/kg intragastric
# [4] = female rats, 2000 mg/kg intragastric
# [5] = male rats, 300 mg/kg intragastric
# [6] = male rats, 600 mg/kg intragastric
# [7] = male rats, 1000 mg/kg intragastric
# [8] = male rats, 2000 mg/kg intragastric
structure (smiles),measurement,setting,value
"CCOC(=O)c1[nH]c2cc(F)ccc2c1/N=N/N1CCCC1 [BX-SI043, Ethyl (E)-6-fluoro-3-(pyrrolidin-1-yldiazenyl)-1H-indole-2-carboxylate]",Changes Appearance,[1],no
same,Changes Behavior,[1],no
same,Changes Body Weight,[1],no
same,Changes Feed Intake,[1],no
same,Changes Organ Histology,[1],no
same,Changes Organ Weight,[1],no
same,Changes Water Intake,[1],no
same,"Relative organ weight, Adrenal glands",[1],"0,03±0,003 % of body weight"
same,"Relative organ weight, Brain",[1],"0,84±0,032 % of body weight"
same,"Relative organ weight, Heart",[1],"0,46±0,012 % of body weight"
same,"Relative organ weight, Kidneys",[1],"0,87±0,065 % of body weight"
same,"Relative organ weight, Liver",[1],"4,79±0,090 % of body weight"
same,"Relative organ weight, Lungs with trachea",[1],"0,77±0,037 % of body weight"
same,"Relative organ weight, Ovaries",[1],"0,067±0,0043 % of body weight"
same,"Relative organ weight, Spleen",[1],"0,37±0,033 % of body weight"
same,"Relative organ weight, Thymus",[1],"0,280±0,016 % of body weight"
same,"Body weight, M±SEM","female rats, 300 mg/kg intragastric, experiment day 1","195,3±3,67 g"
same,"Body weight, M±SEM","female rats, 300 mg/kg intragastric, experiment day 2","194,8±3,92 g"
same,"Body weight, M±SEM","female rats, 300 mg/kg intragastric, experiment day 7","220,0±7,86 g"
same,"Body weight, M±SEM","female rats, 300 mg/kg intragastric, experiment day 15","234,7±9,33 g"
same,Changes Appearance,[2],no
same,Changes Behavior,[2],no
same,Changes Body Weight,[2],no
same,Changes Feed Intake,[2],no
same,Changes Organ Histology,[2],yes
same,Changes Organ Weight,[2],no
same,Changes Water Intake,[2],no
same,"Relative organ weight, Adrenal glands",[2],"0,04±0,002 % of body weight"
same,"Relative organ weight, Brain",[2],"0,86±0,031 % of body weight"
same,"Relative organ weight, Heart",[2],"0,48±0,007 % of body weight"
same,"Relative organ weight, Kidneys",[2],"0,78±0,021 % of body weight"
same,"Relative organ weight, Liver",[2],"4,64±0,067 % of body weight"
same,"Relative organ weight, Lungs with trachea",[2],"0,82±0,044 % of body weight"
same,"Relative organ weight, Ovaries",[2],"0,066±0,0032 % of body weight"
same,"Relative organ weight, Spleen",[2],"0,33±0,045 % of body weight"
same,"Relative organ weight, Thymus",[2],"0,310±0,013 % of body weight"
same,"Body weight, M±SEM","female rats, 600 mg/kg intragastric, experiment day 1","195,2±4,56 g"
same,"Body weight, M±SEM","female rats, 600 mg/kg intragastric, experiment day 2","207,7±4,08 g"
same,"Body weight, M±SEM","female rats, 600 mg/kg intragastric, experiment day 7","222,5±5,43 g"
same,"Body weight, M±SEM","female rats, 600 mg/kg intragastric, experiment day 15","221,2±5,98 g"
same,Changes Appearance,[3],no
same,Changes Behavior,[3],yes
same,Changes Body Weight,[3],no
same,Changes Feed Intake,[3],yes
same,Changes Organ Histology,[3],yes
same,Changes Organ Weight,[3],no
same,Changes Water Intake,[3],no
same,"Relative organ weight, Adrenal glands",[3],"0,04±0,004 % of body weight"
same,"Relative organ weight, Brain",[3],"0,97±0,022 % of body weight"
same,"Relative organ weight, Heart",[3],"0,52±0,02 % of body weight"
same,"Relative organ weight, Kidneys",[3],"0,82±0,027 % of body weight"
same,"Relative organ weight, Liver",[3],"4,67±0,23 % of body weight"
same,"Relative organ weight, Lungs with trachea",[3],"0,79±0,057 % of body weight"
same,"Relative organ weight, Ovaries",[3],"0,085±0,0075 % of body weight"
same,"Relative organ weight, Spleen",[3],"0,42±0,05 % of body weight"
same,"Relative organ weight, Thymus",[3],"0,270±0,020 % of body weight"
same,"Body weight, M±SEM","female rats, 1000 mg/kg intragastric, experiment day 1","185,7±4,61 g"
same,"Body weight, M±SEM","female rats, 1000 mg/kg intragastric, experiment day 2","192,2±3,94 g"
same,"Body weight, M±SEM","female rats, 1000 mg/kg intragastric, experiment day 7","189,6±6,16 g"
same,"Body weight, M±SEM","female rats, 1000 mg/kg intragastric, experiment day 15","199,2±6,46 g"
same,Changes Appearance,[4],yes
same,Changes Behavior,[4],yes
same,Changes Body Weight,[4],no
same,Changes Feed Intake,[4],yes
same,Changes Organ Histology,[4],yes
same,Changes Organ Weight,[4],no
same,Changes Water Intake,[4],no
same,"Relative organ weight, Adrenal glands",[4],"0,04±0,004 % of body weight"
same,"Relative organ weight, Brain",[4],"0,93±0,027 % of body weight"
same,"Relative organ weight, Heart",[4],"0,41±0,079 % of body weight"
same,"Relative organ weight, Kidneys",[4],"0,89±0,033 % of body weight"
same,"Relative organ weight, Liver",[4],"4,73±0,167 % of body weight"
same,"Relative organ weight, Lungs with trachea",[4],"0,9±0,07 % of body weight"
same,"Relative organ weight, Ovaries",[4],"0,088±0,0092 % of body weight"
same,"Relative organ weight, Spleen",[4],"0,38±0,028 % of body weight"
same,"Relative organ weight, Thymus",[4],"0,310±0,032 % of body weight"
same,"Body weight, M±SEM","female rats, 2000 mg/kg intragastric, experiment day 1","196,5±2,06 g"
same,"Body weight, M±SEM","female rats, 2000 mg/kg intragastric, experiment day 2","205,8±1,64 g"
same,"Body weight, M±SEM","female rats, 2000 mg/kg intragastric, experiment day 7","183,5±11,99 g"
same,"Body weight, M±SEM","female rats, 2000 mg/kg intragastric, experiment day 15","210,8±5,91 g"
same,number of animals that died,female rats,2 animals
same,Deaths (Dead/ Total),"female, 300 mg/kg, 14 days",0/6
same,Deaths (Dead/ Total),"female, 600 mg/kg, 14 days",0/6
same,Deaths (Dead/ Total),"female, 1000 mg/kg, 14 days",1/6
same,Deaths (Dead/ Total),"female, 2000 mg/kg, 14 days",1/6
same,Changes Appearance,[5],no
same,Changes Behavior,[5],no
same,Changes Body Weight,[5],no
same,Changes Feed Intake,[5],no
same,Changes Organ Histology,[5],no
same,Changes Organ Weight,[5],no
same,Changes Water Intake,[5],no
same,"Relative organ weight, Adrenal glands",[5],"0,022±0,0012 % of body weight"
same,"Relative organ weight, Brain",[5],"0,77±0,020 % of body weight"
same,"Relative organ weight, Heart",[5],"0,45±0,012 % of body weight"
same,"Relative organ weight, Kidneys",[5],"0,98±0,046 % of body weight"
same,"Relative organ weight, Liver",[5],"4,53±0,26 % of body weight"
same,"Relative organ weight, Lungs with trachea",[5],"0,71±0,034 % of body weight"
same,"Relative organ weight, Spleen",[5],"0,34±0,017 % of body weight"
same,"Relative organ weight, Testes",[5],"1,17±0,039 % of body weight"
same,"Relative organ weight, Thymus",[5],"0,246±0,0276 % of body weight"
same,"Body weight, M±SEM","male rats, 300 mg/kg intragastric, experiment day 1","202,8±2,87 g"
same,"Body weight, M±SEM","male rats, 300 mg/kg intragastric, experiment day 2","205,7±1,73 g"
same,"Body weight, M±SEM","male rats, 300 mg/kg intragastric, experiment day 7","256,7±4,65 g"
same,"Body weight, M±SEM","male rats, 300 mg/kg intragastric, experiment day 15","280,8±8,21 g"
same,Changes Appearance,[6],no
same,Changes Behavior,[6],no
same,Changes Body Weight,[6],no
same,Changes Feed Intake,[6],no
same,Changes Organ Histology,[6],yes
same,Changes Organ Weight,[6],no
same,Changes Water Intake,[6],no
same,"Relative organ weight, Adrenal glands",[6],"0,028±0,0017 % of body weight"
same,"Relative organ weight, Brain",[6],"0,77±0,013 % of body weight"
same,"Relative organ weight, Heart",[6],"0,50±0,013 % of body weight"
same,"Relative organ weight, Kidneys",[6],"0,94±0,031 % of body weight"
same,"Relative organ weight, Liver",[6],"4,69±0,216 % of body weight"
same,"Relative organ weight, Lungs with trachea",[6],"0,86±0,108 % of body weight"
same,"Relative organ weight, Spleen",[6],"0,32±0,036 % of body weight"
same,"Relative organ weight, Testes",[6],"1,28±0,033 % of body weight"
same,"Relative organ weight, Thymus",[6],"0,27±0,0191 % of body weight"
same,"Body weight, M±SEM","male rats, 600 mg/kg intragastric, experiment day 1","201,3±2,80 g"
same,"Body weight, M±SEM","male rats, 600 mg/kg intragastric, experiment day 2","222,2±2,63 g"
same,"Body weight, M±SEM","male rats, 600 mg/kg intragastric, experiment day 7","253,3±4,15 g"
same,"Body weight, M±SEM","male rats, 600 mg/kg intragastric, experiment day 15","274,3±6,51 g"
same,Changes Appearance,[7],no
same,Changes Behavior,[7],yes
same,Changes Body Weight,[7],no
same,Changes Feed Intake,[7],yes
same,Changes Organ Histology,[7],yes
same,Changes Organ Weight,[7],no
same,Changes Water Intake,[7],no
same,"Relative organ weight, Adrenal glands",[7],"0,027±0,0022 % of body weight"
same,"Relative organ weight, Brain",[7],"0,77±0,036 % of body weight"
same,"Relative organ weight, Heart",[7],"0,51±0,022 % of body weight"
same,"Relative organ weight, Kidneys",[7],"0,87±0,008 % of body weight"
same,"Relative organ weight, Liver",[7],"4,91±0,128 % of body weight"
same,"Relative organ weight, Lungs with trachea",[7],"1,00±0,096 % of body weight"
same,"Relative organ weight, Spleen",[7],"0,32±0,031 % of body weight"
same,"Relative organ weight, Testes",[7],"1,11±0,064 % of body weight"
same,"Relative organ weight, Thymus",[7],"0,278±0,0278 % of body weight"
same,"Body weight, M±SEM","male rats, 1000 mg/kg intragastric, experiment day 1","191,0±5,79 g"
same,"Body weight, M±SEM","male rats, 1000 mg/kg intragastric, experiment day 2","206,5±6,61 g"
same,"Body weight, M±SEM","male rats, 1000 mg/kg intragastric, experiment day 7","231,8±12,48 g"
same,"Body weight, M±SEM","male rats, 1000 mg/kg intragastric, experiment day 15","273,0±11,56 g"
same,Changes Appearance,[8],yes
same,Changes Behavior,[8],yes
same,Changes Body Weight,[8],no
same,Changes Feed Intake,[8],yes
same,Changes Organ Histology,[8],yes
same,Changes Organ Weight,[8],no
same,Changes Water Intake,[8],no
same,"Relative organ weight, Adrenal glands",[8],"0,026±0,0014 % of body weight"
same,"Relative organ weight, Brain",[8],"0,78±0,024 % of body weight"
same,"Relative organ weight, Heart",[8],"0,48±0,046 % of body weight"
same,"Relative organ weight, Kidneys",[8],"0,90±0,034 % of body weight"
same,"Relative organ weight, Liver",[8],"4,08±0,252 % of body weight"
same,"Relative organ weight, Lungs with trachea",[8],"0,75±0,037 % of body weight"
same,"Relative organ weight, Spleen",[8],"0,28±0,018 % of body weight"
same,"Relative organ weight, Testes",[8],"1,2±0,120 % of body weight"
same,"Relative organ weight, Thymus",[8],"0,20±0,0116 % of body weight"
same,"Body weight, M±SEM","male rats, 2000 mg/kg intragastric, experiment day 1","196,0±1,61 g"
same,"Body weight, M±SEM","male rats, 2000 mg/kg intragastric, experiment day 2","212,7±3,91 g"
same,"Body weight, M±SEM","male rats, 2000 mg/kg intragastric, experiment day 7","236,0±1,53 g"
same,"Body weight, M±SEM","male rats, 2000 mg/kg intragastric, experiment day 15","259,7±3,18 g"
same,number of animals that died,male rats,4 animals
same,Deaths (Dead/ Total),"male, 300 mg/kg, 14 day",0/6
same,Deaths (Dead/ Total),"male, 600 mg/kg, 14 day",0/6
same,Deaths (Dead/ Total),"male, 1000 mg/kg, 14 day",1/6
same,Deaths (Dead/ Total),"male, 2000 mg/kg, 14 day",3/6
